Laboratory results taken from article PMC3583349 (Pest management science, 2012).
Read-outs that look alike come from different tables or passages of the source.

Tests used:
CpGSTD2 [1] = molecular target: T1, CpGSTD2 (Culex pipiens, UniProt H9M8E4); assay: biochemical
T1 sequence (H9M8E4 1-214): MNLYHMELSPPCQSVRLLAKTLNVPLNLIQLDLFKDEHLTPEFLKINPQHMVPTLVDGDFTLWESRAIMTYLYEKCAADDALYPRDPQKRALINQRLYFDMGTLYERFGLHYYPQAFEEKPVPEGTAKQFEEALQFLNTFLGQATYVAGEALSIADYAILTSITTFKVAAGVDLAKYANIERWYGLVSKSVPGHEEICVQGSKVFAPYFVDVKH

CpGSTD1 [2] = molecular target: T2, CpGSTD1 (Culex pipiens, UniProt H9M8E3); assay: biochemical
T2 sequence (H9M8E3 1-211): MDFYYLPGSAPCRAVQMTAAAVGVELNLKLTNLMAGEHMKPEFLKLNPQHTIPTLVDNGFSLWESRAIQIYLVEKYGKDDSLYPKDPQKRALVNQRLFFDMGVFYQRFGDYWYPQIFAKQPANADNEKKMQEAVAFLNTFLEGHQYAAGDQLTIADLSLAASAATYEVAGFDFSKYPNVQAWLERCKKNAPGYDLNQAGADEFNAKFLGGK

AdGSTD1-1 = details: cited from earlier work
CpGSTD2 [3] = molecular target: T1, CpGSTD2
CpGSTD1 [4] = molecular target: T2, CpGSTD1; details: for Km: pH 6.5
AgGSTD1-6 = details: cited from earlier work
CpGSTD2 [5] = molecular target: T1, CpGSTD2; assay: Peroxidase activity assay with CMHP, CpGSTD2; assay type: biochemical; details: pH 7.5; conditions where a rate of at least 0.1 μmol min^−1 mg^−1 could be detected with CpGSTD1
CpGSTD1 [6] = molecular target: T2, CpGSTD1; assay: Peroxidase activity assay with CMHP, CpGSTD1; assay type: biochemical; details: 0.125 to 1.0 mM CMHP, 7.5 mM reduced GSH, 25°C, pH 6.5
CpGSTD2 [7] = molecular target: T1, CpGSTD2; assay: Permethrin metabolism assay; assay type: biochemical; details: for Ratio of the area under the curve relative to lambda cyhalothrin: after 2 h incubation at 30°C with CpGSTD2, 1 μM permethrin, HPLC
CpGSTD1 [8] = molecular target: T2, CpGSTD1; assay: Permethrin metabolism assay; assay type: biochemical; details: for Ratio of the area under the curve relative to lambda cyhalothrin: after 2 h incubation at 30°C with CpGSTD1, 1 μM permethrin, HPLC
CpGSTD1 [9] = molecular target: T2, CpGSTD1; assay: DDT dehydrochlorination assay, CpGSTD1; assay type: biochemical; details: over a period of 2 h, 1 μM DDT, 15 mM reduced GSH, 30°C, pH 6.5, HPLC
CpGSTD1 [10] = molecular target: T2, CpGSTD1; details: pH 6.5
CpGSTD2 [11] = molecular target: T1, CpGSTD2; remark: listed apart in the source
GST-2 = details: cited from earlier work
GST-1b = details: cited from earlier work
[12] = substrate: O=[N+]([O-])c1ccc(Cl)c(Cl)c1; assay: purified protein, by the assay type; details: pH 7.5; 30.0 °C
[13] = varying substrate 7.8 to 750 μM, 5 mM reduced GSH, 30°C, pH 7.5
[14] = 2 h, 30°C, conditions where a rate of 7 pmol min^−1 mg^−1 could have been reliably detected

O=C(/C=C/c1ccc(O)cc1)c1ccccc1 [4-hydroxy chalcone, 4-hydroxychalcone]
IC50 (CpGSTD2 [1]): 5 ± 0.2 µM | IC50 (CpGSTD1 [2]): 16 ± 1 µM

O=[N+]([O-])c1ccc(Cl)c([N+](=O)[O-])c1 [CDNB, 1-chloro-2,4-dinitrobenze]
catalytic efficiency ratio (kcat/KM) (AdGSTD1-1): 48000 M⁻¹ s⁻¹ | kcat (CpGSTD2 [3]; 5 mM reduced GSH, 30°C, pH 7.5): 7.0 s⁻¹ | catalytic efficiency (kcat/KM) higher with CDNB than with DCNB (CpGSTD2 [3]; CpGSTD2): at least 100 fold | turnover of CDNB faster than DCNB (CpGSTD2 [3]; CpGSTD2, CDNB versus DCNB): about 18 fold | Km (CpGSTD2 [3]; [13]): 30 ± 2 µM | Vmax (CpGSTD2 [3]; [13]): 18 ± 0.2 µmol/min/mg | catalytic efficiency (kcat/KM) higher with CDNB than with DCNB (CpGSTD1 [4]; CpGSTD1): at least 100 fold | turnover of CDNB faster than DCNB (CpGSTD1 [4]; CpGSTD1, CDNB versus DCNB): about 230 fold | turnover of CDNB by CpGSTD1 faster than by CpGSTD2 (CpGSTD1 [4]; CpGSTD1 versus CpGSTD2): about 3 fold | Km (CpGSTD1 [4]): 140 ± 10 µM | catalytic efficiency ratio (kcat/KM) (AgGSTD1-6): 790000 M⁻¹ s⁻¹

CC(C)(OO)c1ccccc1 [CMHP, cumene hydroperoxide]
activity towards CMHP (peroxidase activity) (CpGSTD2 [5]): no detectable activity | rate of CMHP reduction (peroxidase activity) (CpGSTD1 [6]): 1.6 µmol/min/mg

CC1(C)[C@H](C=C(Cl)Cl)[C@H]1C(=O)OCc1cccc(Oc2ccccc2)c1 [trans-permethrin]
Ratio of the area under the curve relative to lambda cyhalothrin (CpGSTD2 [7]): 0.29 ± 0.02 | Ratio of the area under the curve relative to lambda cyhalothrin (CpGSTD1 [8]): 0.24 ± 0.01

Clc1ccc(C(c2ccc(Cl)cc2)C(Cl)(Cl)Cl)cc1 [DDT, 1,1,1-Trichloro-2,2-bis(4-chlorophenyl)ethane]
rate of DDT metabolism to DDE (CpGSTD1 [9]): 6.4 ± 0.6 nmol per mg protein

C=C(CC)C(=O)c1ccc(OCC(=O)O)c(Cl)c1Cl [ethacrynic acid (EA), ethacrynic acid]
IC50 (CpGSTD2 [1]): 2.5 ± 0.1 µM

CC1(C)C(C=C(Cl)Cl)C1C(=O)OCc1cccc(Oc2ccccc2)c1 (centres unmarked) [permethrin]
metabolism of permethrin (CpGSTD2 [7]; [14]): neither CpGSTD1 nor CpGSTD2 are able to metabolize | metabolism of permethrin (CpGSTD1 [8]; [14]): neither CpGSTD1 nor CpGSTD2 are able to metabolize

CCCCCCSC[C@H](NC(=O)CC[C@H](N)C(=O)O)C(=O)NCC(=O)O [S-hexyl glutathione, S-hexylglutathione]
IC50 (CpGSTD1 [10]): 68 ± 3 µM | IC50 (CpGSTD2 [11]): 0.24 µM | IC50 (CpGSTD2 [11]; pH 7.5): 0.24 ± 0.01 µM

CC1(C)[C@H](C(=O)OCc2cccc(Oc3ccccc3)c2)[C@@H]1C=C(Cl)Cl [cis-permethrin]
Ratio of the area under the curve relative to lambda cyhalothrin (CpGSTD2 [7]): 0.51 ± 0.03 | Ratio of the area under the curve relative to lambda cyhalothrin (CpGSTD1 [8]): 0.47 ± 0.02

O=C(/C=C/c1ccccc1)c1ccccc1 [chalcone]
IC50 (GST-2): 165 µM | IC50 (CpGSTD2 [1]): 4 ± 0.2 µM | IC50 (GST-1b): 166 µM | IC50 (CpGSTD1 [2]): 12.1 ± 0.4 µM

O=[N+]([O-])c1ccc(Cl)c(Cl)c1 [DCNB, 1,2-dichloro-4-nitrobenzene]
Km (CpGSTD1 [4]): 170 ± 10 µM

B1: CpGSTD2 (Culex pipiens) (protein)
chain: MNLYHMELSPPCQSVRLLAKTLNVPLNLIQLDLFKDEHLTPEFLKINPQHMVPTLVDGDFTLWESRAIMTYLYEKCAADDALYPRDPQKRALINQRLYFDMGTLYERFGLHYYPQAFEEKPVPEGTAKQFEEALQFLNTFLGQATYVAGEALSIADYAILTSITTFKVAAGVDLAKYANIERWYGLVSKSVPGHEEICVQGSKVFAPYFVDVKH
Km [12]: 220 ± 10 µM | Vmax [12]: 0.96 ± 0.02 µmol/min/mg | kcat [12]: 0.4 s⁻¹ | kcat/Km [12]: 1700 M⁻¹ s⁻¹
